# Earlier results as cited in patent publication US12064417B2, “Combination comprising a glucocorticoid and EDO-S101” (Purdue Pharmaceutical Products L.P., priority 2014, dated 2024).
# Tested on: multiple myeloma cell lines
# Details: in vitro, relative to bendamustin
smiles,measurement,value
Cn1c(CCCCCCC(=O)NO)nc2cc(N(CCCl)CCCl)ccc21 [EDO-S101],activity greater than the activity shown by bendamustin,35-100
